Data from ChEMBL document CHEMBL3044634, “Synthesis and evaluation of antibacterial and antifungal activities of new (Z)-3-bromo-4-(1,3-diaryl-1H-pyrazol-4-yl)but-3-en-2-ones and 4-(3-methyl-1-phenyl-1H-pyrazol-5-yl)-1,3-diaryl-1H-pyrazoles” (2013).
Values after ≈ are worked out from the molar mass of the structure shown. Active and inactive are the calls of the source. The calls are words filed in the database; no cut-off is given here.

Legend:
[1] = tested on: Aspergillus niger; test: Growth inhibition of Aspergillus niger at 4 mg/ml after 7 days by poisoned-food technique; assay type: functional; conditions: 168 h, read-out: GI
[2] = tested on: Aspergillus flavus; test: Growth inhibition of Aspergillus flavus at 4 mg/ml after 7 days by poisoned-food technique; assay type: functional; conditions: 168 h, read-out: GI
[3] = tested on: Bacillus subtilis; test: Antibacterial activity against Bacillus subtilis MTCC 121 after 24 hr by macrodilution tube method; assay type: functional; conditions: MTCC 121, 24 h
[4] = tested on: Staphylococcus aureus; test: Antibacterial activity against Staphylococcus aureus MTCC 96 after 24 hr by macrodilution tube method; assay type: functional; conditions: MTCC 96, 24 h
[5] = tested on: Escherichia coli; test: Antibacterial activity against Escherichia coli MTCC 1652 at 2 mg/ml after 24 hr by agar well diffusion method; assay type: functional, organism-based
[6] = tested on: Bacillus subtilis; test: Antibacterial activity against Bacillus subtilis MTCC 121 at 2 mg/ml after 24 hr by agar well diffusion method; assay type: functional; conditions: MTCC 121, 24 h, read-out: DIZ
[7] = tested on: Staphylococcus aureus; test: Antibacterial activity against Staphylococcus aureus MTCC 96 at 2 mg/ml after 24 hr by agar well diffusion method; assay type: functional; conditions: MTCC 96, 24 h, read-out: DIZ
[8] = tested on: Pseudomonas aeruginosa; test: microbe, parasite or virus in culture; conditions: MTCC 741, 24 h, read-out: DIZ
Description: Antibacterial activity against Pseudomonas aeruginosa MTCC 741 at 2 mg/ml after 24 hr by agar well diffusion method

Compound	inhibition of growth at 4000 µg/mL [1]	inhibition of growth at 4000 µg/mL [2]	MIC [3]	MIC [4]	Activity [5]	zone of inhibition at 2000 µg/mL [6]	zone of inhibition at 2000 µg/mL [7]	zone of inhibition at 2000 µg/mL [8]
OC(Cn1cncn1)(Cn1cncn1)c1ccc(F)cc1F [FLUCONAZOLE]	81.1%	77.7%	–	–	–	–	–	–
CC(=O)/C(Br)=C/c1cn(-c2ccc([N+](=O)[O-])cc2)nc1-c1ccccc1	51.1%	53.3%	128 mg/L (≈ 310 µM)	64 mg/L (≈ 155 µM)	inactive	17.3 mm	19.3 mm	–
Cc1cc(-c2cn(-c3ccc([N+](=O)[O-])cc3)nc2-c2ccccc2)n(-c2ccccc2)n1	43.3%	45.5%	256 mg/L (≈ 607 µM)	256 mg/L (≈ 607 µM)	inactive	14.3 mm	13.6 mm	–
CC(=O)/C(Br)=C/c1cn(-c2ccccc2)nc1-c1ccc(Cl)cc1	50%	45.5%	128 mg/L (≈ 319 µM)	256 mg/L (≈ 637 µM)	inactive	16.3 mm	14.6 mm	–
CC(=O)/C(Br)=C/c1cn(-c2ccccc2)nc1-c1ccccc1	51.1%	48.8%	128 mg/L (≈ 349 µM)	128 mg/L (≈ 349 µM)	inactive	16.6 mm	15.3 mm	–
Cc1cc(-c2cn(-c3ccccc3)nc2-c2ccc(Cl)cc2)n(-c2ccccc2)n1	48.8%	51.1%	128 mg/L (≈ 312 µM)	256 mg/L (≈ 623 µM)	inactive	16.3 mm	14.3 mm	–
COc1ccc(-c2nn(-c3ccc([N+](=O)[O-])cc3)cc2-c2cc(C)nn2-c2ccccc2)cc1	46.6%	44.4%	128 mg/L (≈ 284 µM)	256 mg/L (≈ 567 µM)	inactive	14 mm	15.3 mm	–
CC(=O)/C(Br)=C/c1cn(-c2ccccc2)nc1-c1ccc([N+](=O)[O-])cc1	48.8%	52.2%	128 mg/L (≈ 310 µM)	128 mg/L (≈ 310 µM)	inactive	17.6 mm	16 mm	–
COc1ccc(-c2nn(-c3ccccc3)cc2/C=C(\Br)C(C)=O)cc1	45.5%	44.4%	128 mg/L (≈ 322 µM)	128 mg/L (≈ 322 µM)	inactive	16.3 mm	15.6 mm	–
Cc1cc(-c2cn(-c3ccccc3)nc2-c2ccc([N+](=O)[O-])cc2)n(-c2ccccc2)n1	51.1%	53.3%	64 mg/L (≈ 152 µM)	64 mg/L (≈ 152 µM)	inactive	18.6 mm	17.6 mm	–
O=C(O)c1cn(C2CC2)c2cc(N3CCNCC3)c(F)cc2c1=O [CIPROFLOXACIN]	–	–	5 mg/L (≈ 15.1 µM)	5 mg/L (≈ 15.1 µM)	–	24 mm	26 mm	25.3 mm
Cc1ccc(-c2nn(-c3ccccc3)cc2-c2cc(C)nn2-c2ccccc2)cc1	44.4%	45.5%	128 mg/L (≈ 328 µM)	256 mg/L (≈ 656 µM)	inactive	16.3 mm	14.6 mm	–
Cc1cc(-c2cn(-c3ccccc3)nc2-c2ccc(F)cc2)n(-c2ccccc2)n1	43.3%	44.4%	128 mg/L (≈ 325 µM)	128 mg/L (≈ 325 µM)	inactive	16.3 mm	15 mm	–
COc1ccc(-c2nn(-c3ccccc3)cc2-c2cc(C)nn2-c2ccccc2)cc1	41.1%	44.4%	256 mg/L (≈ 630 µM)	128 mg/L (≈ 315 µM)	inactive	14 mm	15.3 mm	–
CC(=O)/C(Br)=C/c1cn(-c2ccccc2)nc1-c1ccc(F)cc1	53.3%	55.5%	32 mg/L (≈ 83.1 µM)	32 mg/L (≈ 83.1 µM)	inactive	21.6 mm	20.6 mm	–
Cc1cc(-c2cn(-c3ccc([N+](=O)[O-])cc3)nc2-c2ccc(F)cc2)n(-c2ccccc2)n1	44.4%	47.7%	128 mg/L (≈ 291 µM)	256 mg/L (≈ 583 µM)	inactive	15.6 mm	13.6 mm	–
CC(=O)/C(Br)=C/c1cn(-c2ccc([N+](=O)[O-])cc2)nc1-c1ccc(F)cc1	48.8%	50%	128 mg/L (≈ 298 µM)	128 mg/L (≈ 298 µM)	inactive	17.3 mm	16.6 mm	–
Cc1cc(-c2cn(-c3ccccc3)nc2-c2ccc(Br)cc2)n(-c2ccccc2)n1	55.5%	52.2%	32 mg/L (≈ 70.3 µM)	64 mg/L (≈ 141 µM)	inactive	20.6 mm	19.3 mm	–
COc1ccc(-c2nn(-c3ccc([N+](=O)[O-])cc3)cc2/C=C(\Br)C(C)=O)cc1	45.5%	50%	128 mg/L (≈ 289 µM)	128 mg/L (≈ 289 µM)	inactive	16 mm	15.6 mm	–
CC(=O)/C(Br)=C/c1cn(-c2ccccc2)nc1-c1ccc(Br)cc1	55.5%	58.8%	64 mg/L (≈ 143 µM)	32 mg/L (≈ 71.7 µM)	inactive	19.3 mm	21.3 mm	–
CC(=O)/C(Br)=C/c1cn(-c2ccccc2)nc1-c1ccc(C)cc1	51.1%	52.2%	128 mg/L (≈ 336 µM)	64 mg/L (≈ 168 µM)	inactive	17 mm	18.3 mm	–
Cc1cc(-c2cn(-c3ccccc3)nc2-c2ccccc2)n(-c2ccccc2)n1	44.4%	46.6%	128 mg/L (≈ 340 µM)	128 mg/L (≈ 340 µM)	inactive	15.6 mm	16.3 mm	–
